The source of these data is patent US9108960B2 (priority 2011, dated 2015).

In brackets after ≈: the same amount, converted by molar mass.

The test system of one assay is M. tuberculosis Rif^R. As to the kind of experiment: Antimycobacterial assay, MIC by broth microdilution / Nitrate Reductase Assay. The format is cell-based. To be noted: Mycobacterium tuberculosis, read-out: MIC M. tuberculosis Rif^R. For orientation: In broth dilution the organism is exposed to a series of concentrations in liquid medium.
The test system of assay [1] is M. tuberculosis H37Rv. The assay is described as above. It counts as cell-based. The following applies: Mycobacterium tuberculosis, exposure period 3-4 days.
The test system of another assay is M. tuberculosis XDR-1. Described as above. The format is cell-based. To be noted: Mycobacterium tuberculosis, XDR1, read-out: MIC M. tuberculosis XDR-1.
Assay [2] has as its system M. tuberculosis H37Rv. To be noted: literature values (footnote *); cited from earlier work.

As to `O=C(Nc1ccc(N2CCC(c3n[nH]c(=O)o3)CC2)cc1)c1ccc([N+](=O)[O-])o1` [Compound 8a, N2-4-[4-(5-Oxo-4,5-dihydro-1,3,4-oxadiazol-2-yl)piperidino]phenyl-5-nitro-2-furamide], the MIC was 1 µg/mL (≈ 2.5 µM) with M. tuberculosis Rif^R, 1 µg/mL (≈ 2.5 µM) against M. tuberculosis H37Rv [1] and 4 µg/mL (≈ 10 µM) with M. tuberculosis XDR-1.

Turning to `CCn1nc(C2CCN(c3ccc(NC(=O)c4ccc([N+](=O)[O-])o4)cc3)CC2)oc1=O` [Compound 8c, N2-4-[4-(4-Ethyl-5-oxo-4,5-dihydro-1,3,4-oxadiazol-2-yl)piperidino]phenyl-5-nitro-2-furamide], the values for the MIC in the assay on M. tuberculosis Rif^R, with M. tuberculosis H37Rv [1] and with M. tuberculosis XDR-1 were 2 µg/mL (≈ 4.68 µM), 1 µg/mL (≈ 2.34 µM) and 4 µg/mL (≈ 9.36 µM), respectively.

Consider `O=C(Nc1ccc(N2CCC(c3n[nH]c(=O)o3)CC2)c(F)c1)c1ccc([N+](=O)[O-])o1` [Compound 8e, N2-3-Fluoro-4-[4-(5-oxo-4,5-dihydro-1,3,4-oxadiazol-2-yl)piperidino]phenyl-5-nitro-2-furamide], for which the figures for the minimal inhibitory concentration (MIC) with M. tuberculosis Rif^R, against M. tuberculosis H37Rv [1] and in the assay with M. tuberculosis XDR-1 were 2 µg/mL (≈ 4.79 µM), 2 µg/mL (≈ 4.79 µM) and 8 µg/mL (≈ 19.2 µM), respectively.

For `Cn1nc(C2CCN(c3ccc(NC(=O)c4ccc([N+](=O)[O-])o4)cc3F)CC2)oc1=O` [Compound 8f, N2-3-Fluoro-4-[4-(4-methyl-5-oxo-4,5-dihydro-1,3,4-oxadiazol-2-yl)piperidino]phenyl-5-nitro-2-furamide], the figures for the MIC in the assay on M. tuberculosis Rif^R, against M. tuberculosis H37Rv [1] and in the assay on M. tuberculosis XDR-1 were 2 µg/mL (≈ 4.64 µM), 1 µg/mL (≈ 2.32 µM) and 4 µg/mL (≈ 9.27 µM), respectively.

Regarding `CCn1nc(C2CCN(c3ccc(NC(=O)c4ccc([N+](=O)[O-])o4)cc3F)CC2)oc1=O` [Compound 8g, N2-4-[4-(4-Ethyl-5-oxo-4,5-dihydro-1,3,4-oxadiazol-2-yl)piperidino]-3-fluorophenyl-5-nitro-2-furamide], the MIC with M. tuberculosis Rif^R is 1 µg/mL (≈ 2.25 µM); against M. tuberculosis H37Rv [1], 0.5 µg/mL (≈ 1.12 µM); in the assay on M. tuberculosis XDR-1 it was 2 µg/mL (≈ 4.49 µM).

Take `O=c1[nH]nc(C2CCN(c3ccc(/N=C/c4ccc([N+](=O)[O-])o4)cc3)CC2)o1` [Compound 9a, 5-[1-(4-[(E)-1-(5-Nitro-2-furyl)methylidene]aminophenyl)-4-piperidyl]-2,3-dihydro-1,3,4-oxadiazol-2-one]: the MIC in the assay on M. tuberculosis Rif^R worked out at 4 µg/mL (≈ 10.4 µM); in the assay on M. tuberculosis H37Rv [1] it was 2 µg/mL (≈ 5.22 µM); in the assay with M. tuberculosis XDR-1, 4 µg/mL (≈ 10.4 µM).

`Cn1nc(C2CCN(c3ccc(/N=C/c4ccc([N+](=O)[O-])o4)cc3)CC2)oc1=O` [Compound 9b, 3-Methyl-5-[1-(4-[(E)-1-(5-nitro-2-furyl)methylidene]aminophenyl)-4-piperidyl]-2,3-dihydro-1,3,4-oxadiazol-2-one]: the MIC in the assay with M. tuberculosis Rif^R was found to be 4 µg/mL (≈ 10.1 µM); in the assay with M. tuberculosis H37Rv [1] it was 2 µg/mL (≈ 5.03 µM); with M. tuberculosis XDR-1, 8 µg/mL (≈ 20.1 µM).

`CCn1nc(C2CCN(c3ccc(/N=C/c4ccc([N+](=O)[O-])o4)cc3)CC2)oc1=O` [Compound 9c, 3-Ethyl-5-[1-(4-[(E)-1-(5-nitro-2-furyl)methylidene]aminophenyl)-4-piperidyl]-2,3-dihydro-1,3,4-oxadiazol-2-one]: the MIC with M. tuberculosis Rif^R was found to be 2 µg/mL (≈ 4.86 µM); in the assay with M. tuberculosis H37Rv [1] it was 1 µg/mL (≈ 2.43 µM); in the assay on M. tuberculosis XDR-1, 4 µg/mL (≈ 9.72 µM).

On to `O=c1oc(C2CCN(c3ccc(/N=C/c4ccc([N+](=O)[O-])o4)cc3)CC2)nn1Cc1ccccc1` [Compound 9d, 3-Benzyl-5-[1-(4-[(E)-1-(5-nitro-2-furyl)methylidene]aminophenyl)-4-piperidyl]-2,3-dihydro-1,3,4-oxadiazol-2-one], for which the MIC in the assay on M. tuberculosis Rif^R was 4 µg/mL (≈ 8.45 µM); against M. tuberculosis H37Rv [1], 2 µg/mL (≈ 4.22 µM); in the assay on M. tuberculosis XDR-1, 8 µg/mL (≈ 16.9 µM).

As to `O=c1[nH]nc(C2CCN(c3ccc(/N=C/c4ccc([N+](=O)[O-])o4)cc3F)CC2)o1` [Compound 9e, 5-[1-(2-Fluoro-4-[(E)-1-(5-nitro-2-furyl)methylidene]aminophenyl)-4-piperidyl]-2,3-dihydro-1,3,4-oxadiazol-2-one], the figures for the MIC in the assay with M. tuberculosis Rif^R, against M. tuberculosis H37Rv [1] and in the assay on M. tuberculosis XDR-1 were 2 µg/mL (≈ 4.98 µM), 2 µg/mL (≈ 4.98 µM) and 8 µg/mL (≈ 19.9 µM), respectively.

Take `Cn1nc(C2CCN(c3ccc(/N=C/c4ccc([N+](=O)[O-])o4)cc3F)CC2)oc1=O` [Compound 9f, 5-[1-(2-Fluoro-4-[(E)-1-(5-nitro-2-furyl)methylidene]aminophenyl)-4-piperidyl]-3-methyl-2,3-dihydro-1,3,4-oxadiazol-2-one]: the MIC was found to be 4 µg/mL (≈ 9.63 µM) in the assay on M. tuberculosis Rif^R, 2 µg/mL (≈ 4.81 µM) in the assay with M. tuberculosis H37Rv [1] and 8 µg/mL (≈ 19.3 µM) with M. tuberculosis XDR-1.

On to `CCn1nc(C2CCN(c3ccc(/N=C/c4ccc([N+](=O)[O-])o4)cc3F)CC2)oc1=O` [Compound 9g, 3-Ethyl-5-[1-(2-fluoro-4-[(E)-1-(5-nitro-2-furyl)methylidene]aminophenyl)-4-piperidyl]-2,3-dihydro-1,3,4-oxadiazol-2-one], for which the MIC was found to be 2 µg/mL (≈ 4.66 µM) with M. tuberculosis Rif^R, 1 µg/mL (≈ 2.33 µM) in the assay on M. tuberculosis H37Rv [1] and 4 µg/mL (≈ 9.32 µM) in the assay on M. tuberculosis XDR-1.

As for `O=c1oc(C2CCN(c3ccc(/N=C/c4ccc([N+](=O)[O-])o4)cc3F)CC2)nn1Cc1ccccc1` [Compound 9h, 3-Benzyl-5-[1-(2-fluoro-4-[(E)-1-(5-nitro-2-furyl)methylidene]aminophenyl)-4-piperidyl]-2,3-dihydro-1,3,4-oxadiazol-2-one], the minimal inhibitory concentration (MIC) with M. tuberculosis Rif^R was 2 µg/mL (≈ 4.07 µM); with M. tuberculosis H37Rv [1] it was 2 µg/mL (≈ 4.07 µM); with M. tuberculosis XDR-1 it was 8 µg/mL (≈ 16.3 µM).

On to `O=c1[nH]nc(C2CCN(c3ccc(NCc4ccc([N+](=O)[O-])o4)cc3)CC2)o1` [Compound 10a, 5-[1-(4-[(5-Nitro-2-furyl)methyl]aminophenyl)-4-piperidyl]-2,3-dihydro-1,3,4-oxadiazol-2-one], for which the MIC in the assay with M. tuberculosis Rif^R was found to be 4 µg/mL (≈ 10.4 µM); with M. tuberculosis H37Rv [1] it was 1 µg/mL (≈ 2.59 µM); in the assay with M. tuberculosis XDR-1, 4 µg/mL (≈ 10.4 µM).

As to `Cn1nc(C2CCN(c3ccc(NCc4ccc([N+](=O)[O-])o4)cc3)CC2)oc1=O` [Compound 10b, 3-Methyl-5-[1-(4-[(5-nitro-2-furyl)methyl]aminophenyl)-4-piperidyl]-2,3-dihydro-1,3,4-oxadiazol-2-one], the MIC in the assay on M. tuberculosis Rif^R turned out to be 4 µg/mL (≈ 10 µM); against M. tuberculosis H37Rv [1], 2 µg/mL (≈ 5.01 µM); with M. tuberculosis XDR-1, 8 µg/mL (≈ 20 µM).

Regarding `CCn1nc(C2CCN(c3ccc(NCc4ccc([N+](=O)[O-])o4)cc3)CC2)oc1=O` [Compound 10c, 3-Ethyl-5-[1-(4-[(5-nitro-2-furyl)methyl]aminophenyl)-4-piperidyl]-2,3-dihydro-1,3,4-oxadiazol-2-one], the results for the MIC in the assay with M. tuberculosis Rif^R, against M. tuberculosis H37Rv [1] and with M. tuberculosis XDR-1 were 1 µg/mL (≈ 2.42 µM), 1 µg/mL (≈ 2.42 µM) and 4 µg/mL (≈ 9.68 µM), respectively.

Consider `O=c1oc(C2CCN(c3ccc(NCc4ccc([N+](=O)[O-])o4)cc3)CC2)nn1Cc1ccccc1` [Compound 10d, 3-Benzyl-5-[1-(4-[(5-nitro-2-furyl)methyl]aminophenyl)-4-piperidyl]-2,3-dihydro-1,3,4-oxadiazol-2-one], for which the MIC in the assay with M. tuberculosis Rif^R amounted to 2 µg/mL (≈ 4.21 µM); against M. tuberculosis H37Rv [1], 2 µg/mL (≈ 4.21 µM); with M. tuberculosis XDR-1 it was 8 µg/mL (≈ 16.8 µM).

Take `O=c1[nH]nc(C2CCN(c3ccc(NCc4ccc([N+](=O)[O-])o4)cc3F)CC2)o1` [Compound 10e, 5-[1-(2-Fluoro-4-[(5-nitro-2-furyl)methyl]aminophenyl)-4-piperidyl]-2,3-dihydro-1,3,4-oxadiazol-2-one]: the MIC in the assay on M. tuberculosis Rif^R came to 2 µg/mL (≈ 4.96 µM); against M. tuberculosis H37Rv [1], 2 µg/mL (≈ 4.96 µM); in the assay on M. tuberculosis XDR-1 it was 8 µg/mL (≈ 19.8 µM).

For the compound `Cn1nc(C2CCN(c3ccc(NCc4ccc([N+](=O)[O-])o4)cc3F)CC2)oc1=O` [Compound 10f, 5-[1-(2-Fluoro-4-[(5-nitro-2-furyl)methyl]aminophenyl)-4-piperidyl]-3-methyl-2,3-dihydro-1,3,4-oxadiazol-2-one], the minimum inhibitory concentration (MIC) was found to be 8 µg/mL (≈ 19.2 µM) with M. tuberculosis Rif^R, 4 µg/mL (≈ 9.58 µM) against M. tuberculosis H37Rv [1] and 16 µg/mL (≈ 38.3 µM) in the assay with M. tuberculosis XDR-1.

As to `CCn1nc(C2CCN(c3ccc(NCc4ccc([N+](=O)[O-])o4)cc3F)CC2)oc1=O` [Compound 10g, 3-Ethyl-5-[1-(2-fluoro-4-[(5-nitro-2-furyl)methyl]aminophenyl)-4-piperidyl]-2,3-dihydro-1,3,4-oxadiazol-2-one], the minimal inhibitory concentration (MIC) in the assay on M. tuberculosis Rif^R was 4 µg/mL (≈ 9.27 µM); in the assay with M. tuberculosis H37Rv [1], 2 µg/mL (≈ 4.64 µM); in the assay with M. tuberculosis XDR-1, 4 µg/mL (≈ 9.27 µM).

`O=c1oc(C2CCN(c3ccc(NCc4ccc([N+](=O)[O-])o4)cc3F)CC2)nn1Cc1ccccc1` [Compound 10h, 3-Benzyl-5-[1-(2-fluoro-4-[(5-nitro-2-furyl)methyl]aminophenyl)-4-piperidyl]-2,3-dihydro-1,3,4-oxadiazol-2-one]: the MIC in the assay on M. tuberculosis Rif^R was determined as 4 µg/mL (≈ 8.11 µM); against M. tuberculosis H37Rv [1], 2 µg/mL (≈ 4.05 µM); with M. tuberculosis XDR-1, 8 µg/mL (≈ 16.2 µM).

On to `O=C(Nc1cccc(F)c1)c1ccc([N+](=O)[O-])o1` [Compound 11a, N2-(3-fluorophenyl)-5-nitro-2-furamide], for which the “MIC M. tuberculosis H37Rv” value with M. tuberculosis H37Rv [2] is 0.12 µg/mL (≈ 0.48 µM).

For the compound `O=C(Nc1ccncc1)c1ccc([N+](=O)[O-])o1` [Compound 11b, N2-(4-pyridyl)-5-nitro-2-furamide], the “MIC M. tuberculosis H37Rv” value in the assay on M. tuberculosis H37Rv [2] was 0.8 µg/mL (≈ 3.43 µM).

With `O=C(Nc1ccc(N2CCC(Cc3ccccc3)CC2)cc1)c1ccc([N+](=O)[O-])o1` [Compound 11c, N2-[4-(4-benzylpiperidino)phenyl]-5-nitro-2-furamide], the “MIC M. tuberculosis H37Rv” value with M. tuberculosis H37Rv [2] is 3.12 µg/mL (≈ 7.7 µM).

Turning to `CC1CCCN(Cn2nc(-c3ccncc3)oc2=O)C1` (stereo not shown) [Compound 12a, 3-[(3-methylpiperidino)methyl]-5-(4-pyridyl)-2,3-dihydro-1,3,4-oxadiazol-2-one], the “MIC M. tuberculosis H37Rv” value in the assay with M. tuberculosis H37Rv [2] is 3.13 µg/mL (≈ 11.4 µM).

Take `CN1CCN(Cn2nc(-c3ccncc3)oc2=O)CC1` [Compound 12b, 3-[(4-methylpiperazino)methyl]-5-(4-pyridyl)-2,3-dihydro-1,3,4-oxadiazol-2-one]: the “MIC M. tuberculosis H37Rv” value with M. tuberculosis H37Rv [2] was 1.25 µg/mL (≈ 4.54 µM).

In the case of `O=c1oc(-c2ccncc2)nn1CN1CCC(Cc2ccccc2)CC1` [Compound 12c, 3-[(4-benzylpiperidino)methyl]-5-(4-pyridyl)-2,3-dihydro-1,3,4-oxadiazol-2-one], in the assay on M. tuberculosis H37Rv [2], the “MIC M. tuberculosis H37Rv” value was 2.5 µg/mL (≈ 7.13 µM).

As for `NNC(=O)c1ccncc1` [Isoniazid, reference compound], the MIC in the assay with M. tuberculosis H37Rv [1] amounted to 2.5 µg/mL (≈ 18.2 µM).

In the case of `CO[C@H]1/C=C/O[C@@]2(C)Oc3c(C)c(O)c4c(O)c(c(/C=N/N5CCN(C)CC5)c(O)c4c3C2=O)NC(=O)/C(C)=C\C=C\[C@H](C)[C@H](O)[C@@H](C)[C@@H](O)[C@@H](C)[C@H](OC(C)=O)[C@@H]1C` [Rifampicin, reference compound], the minimum inhibitory concentration (MIC) in the assay on M. tuberculosis Rif^R is > 128 µg/mL; in the assay with M. tuberculosis H37Rv [1], 0.5 µg/mL (≈ 0.608 µM); in the assay on M. tuberculosis XDR-1 it was 2 µg/mL (≈ 2.43 µM).

Broadly, the MIC is the lowest concentration that inhibits growth of the organism.
